Experimental findings from patent US20230278995A1, “1,3,4-OXADIAZOLE DERIVATIVE COMPOUNDS AS HISTONE DEACETYLASE 6 INHIBITOR, AND THE PHARMACEUTICAL COMPOSITION COMPRISING THE SAME” (CHONG KUN DANG PHARMACEUTICAL CORP., priority 2020, published 2023) are described below.

Test [1] has as its target T1, human recombinant HDAC1 (Homo sapiens, UniProt Q13547).
T1 construct: purchased Enzo Life Sciences, Inc. BML-SE456
Kind of test: HDAC enzyme activity inhibition assay (HDAC Fluorimetric Drug Discovery Kit), HDAC1. Type of test: biochemical. The note with it: human recombinant HDAC1, Fluor de Lys-SIRT1 substrate, 30° C. 60 minutes. As to the method:
(§1) For the HDAC1 enzyme activity test, human recombinant HDAC1 (BML-SE456) was used as an enzyme source and Fluor de Lys©-SIRT1 (BNL-K1177) was used as a substrate. After dispensing 5-fold diluted compounds into a 96-well plate, 0.3 μg of enzyme and 10 μM substrate were added to each well of the plate and allowed to react at 30° C. for 60 minutes. Next, Fluor de Lys© Developer II (BML-K1176) was added and reacted for 30 minutes to complete the reaction, and then the fluorescence values (Ex 360, Em 460) were measured using a multi-plate reader (Flexstation 3, Molecular Device). The HDAC6 enzymes were tested using human recombinant HDAC6 (382180) from Calbiochem Inc., according to the same protocol as the HDAC1 enzyme activity test method. With respect to the final result values, respective IC50 values were calculated using GraphPad Prism 4.0 program (Table 2).

Test [2] concerns the target T2, human recombinant HDAC6 (Homo sapiens, UniProt Q9UBN7).
T2 construct: purchased Calbiochem Inc. 382180
T2 sequence (Q9UBN7 1-1215): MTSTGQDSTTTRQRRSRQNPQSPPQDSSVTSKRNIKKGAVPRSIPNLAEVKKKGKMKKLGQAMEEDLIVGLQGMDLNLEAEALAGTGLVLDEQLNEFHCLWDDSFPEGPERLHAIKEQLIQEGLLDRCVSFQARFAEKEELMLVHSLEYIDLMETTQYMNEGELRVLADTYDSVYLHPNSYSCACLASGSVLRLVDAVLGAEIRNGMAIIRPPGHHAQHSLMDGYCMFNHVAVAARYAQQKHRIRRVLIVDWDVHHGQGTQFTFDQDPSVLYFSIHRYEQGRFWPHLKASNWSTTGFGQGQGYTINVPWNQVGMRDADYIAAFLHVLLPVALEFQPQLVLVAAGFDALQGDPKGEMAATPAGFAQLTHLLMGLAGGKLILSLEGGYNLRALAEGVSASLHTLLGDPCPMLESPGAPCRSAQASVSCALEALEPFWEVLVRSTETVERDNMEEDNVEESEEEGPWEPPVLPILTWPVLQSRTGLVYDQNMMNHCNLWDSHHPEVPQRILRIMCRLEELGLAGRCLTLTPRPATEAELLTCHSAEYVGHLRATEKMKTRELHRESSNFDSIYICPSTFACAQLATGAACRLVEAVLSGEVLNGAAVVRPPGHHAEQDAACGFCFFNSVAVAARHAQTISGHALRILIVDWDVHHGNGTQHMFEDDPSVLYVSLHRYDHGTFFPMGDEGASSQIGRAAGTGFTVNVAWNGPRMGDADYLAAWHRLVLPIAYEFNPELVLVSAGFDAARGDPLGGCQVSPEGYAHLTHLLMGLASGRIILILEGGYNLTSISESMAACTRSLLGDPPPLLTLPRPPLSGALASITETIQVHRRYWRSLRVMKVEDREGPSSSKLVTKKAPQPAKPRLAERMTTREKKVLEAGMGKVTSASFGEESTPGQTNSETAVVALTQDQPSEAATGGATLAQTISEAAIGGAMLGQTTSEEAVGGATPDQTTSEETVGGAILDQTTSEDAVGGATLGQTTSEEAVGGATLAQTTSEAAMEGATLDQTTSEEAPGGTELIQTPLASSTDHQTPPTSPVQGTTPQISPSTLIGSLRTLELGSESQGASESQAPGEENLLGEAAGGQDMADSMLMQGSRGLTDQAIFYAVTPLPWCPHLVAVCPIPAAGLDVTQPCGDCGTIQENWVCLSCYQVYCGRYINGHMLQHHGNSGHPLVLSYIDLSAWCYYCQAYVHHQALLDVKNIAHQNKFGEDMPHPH
Kind of test: HDAC enzyme activity inhibition assay (HDAC Fluorimetric Drug Discovery Kit), HDAC6. Type of test: biochemical. Conditions: for HDAC6 selectivity (fold): HDAC1 vs HDAC6; for IC50: human recombinant HDAC6, same protocol as HDAC1. As to the method:
as §1

As usually defined, the IC50 is the point on the concentration scale where inhibition reaches its midpoint.

T1 sequence (Q13547 whole entry): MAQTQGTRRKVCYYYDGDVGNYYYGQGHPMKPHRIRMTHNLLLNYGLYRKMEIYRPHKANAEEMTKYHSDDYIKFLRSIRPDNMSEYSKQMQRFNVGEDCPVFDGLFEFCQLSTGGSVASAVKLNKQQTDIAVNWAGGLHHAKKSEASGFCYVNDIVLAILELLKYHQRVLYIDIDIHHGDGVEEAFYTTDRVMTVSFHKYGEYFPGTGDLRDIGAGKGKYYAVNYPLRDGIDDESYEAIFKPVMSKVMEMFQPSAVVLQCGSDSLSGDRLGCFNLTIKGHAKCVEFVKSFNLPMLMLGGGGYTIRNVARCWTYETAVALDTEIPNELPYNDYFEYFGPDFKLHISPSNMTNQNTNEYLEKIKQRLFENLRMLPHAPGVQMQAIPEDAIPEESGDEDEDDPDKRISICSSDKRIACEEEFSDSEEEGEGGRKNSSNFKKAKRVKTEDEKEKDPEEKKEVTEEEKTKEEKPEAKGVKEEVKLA

Consider `CCN1CC(F)(C(=O)N(Cc2ccc(-c3nnc(C(F)F)o3)cn2)c2cccc(F)c2)C1` [Compound 3090, N-((5-(5-(difluoromethyl)-1,3,4-oxadiazol-2-yl)pyridin-2-yl)methyl)-1-ethyl-3-fluoro-N-(3-fluorophenyl)azetidine-3-carboxamide], for which, in test [1], the IC50 was more than 50 µM. Besides, in test [2], the “HDAC6 selectivity (fold)” value is reported as 2,212 fold and the IC50 is 0.0226 µM.

As for `CCCN1CC(F)(C(=O)N(Cc2ccc(-c3nnc(C(F)F)o3)cn2)c2cccc(F)c2)C1` [Compound 3091, N-((5-(5-(difluoromethyl)-1,3,4-oxadiazol-2-yl)pyridin-2-yl)methyl)-3-fluoro-N-(3-fluorophenyl)-1-propylazetidine-3-carboxamide], in test [1], the half-inhibitory concentration (IC50) was more than 50 µM. Besides, in test [2], the “HDAC6 selectivity (fold)” value is listed as 1,436 fold and the IC50 amounted to 0.0348 µM.

`CC(C)CN1CC(F)(C(=O)N(Cc2ccc(-c3nnc(C(F)F)o3)cn2)c2cccc(F)c2)C1` [Compound 3093, N-((5-(5-(difluoromethyl)-1,3,4-oxadiazol-2-yl)pyridin-2-yl)methyl)-3-fluoro-N-(3-fluorophenyl)-1-isobutylazetidine-3-carboxamide]: the half-inhibitory concentration (IC50) in test [1] was more than 50 µM. In test [2], the “HDAC6 selectivity (fold)” value is reported as 1,543 fold and the IC50 came out at 0.0324 µM.

`CC(CO)N1CC(F)(C(=O)N(Cc2ccc(-c3nnc(C(F)F)o3)cn2)c2cccc(F)c2)C1` (stereo not drawn) [Compound 3094, N-((5-(5-(difluoromethyl)-1,3,4-oxadiazol-2-yl)pyridin-2-yl)methyl)-3-fluoro-N-(3-fluorophenyl)-1-(1-hydroxypropan-2-yl)azetidine-3-carboxamide]: the IC50 in test [1] is more than 50 µM. Further, in test [2], the “HDAC6 selectivity (fold)” value is on record as 1,901 fold and the IC50 was found to be 0.0263 µM.

Turning to `O=C(N(Cc1ccc(-c2nnc(C(F)F)o2)cn1)c1cccc(F)c1)C1(F)CN(C2CCC(F)(F)CC2)C1` [Compound 3096, 1-(4,4-difluorocyclohexyl)-N-((5-(5-(difluoromethyl)-1,3,4-oxadiazol-2-yl)pyridin-2-yl)methyl)-3-fluoro-N-(3-fluorophenyl)azetidine-3-carboxamide], the values for the half-inhibitory concentration (IC50) in test [1] and in test [2] were more than 50 µM and 0.0361 µM, respectively. Also, the “HDAC6 selectivity (fold)” value in test [2] is reported as 1,385 fold.

On to `CN(C)CCC(=O)N1CC(F)(C(=O)N(Cc2ccc(-c3nnc(C(F)F)o3)cn2)c2cccc(F)c2)C1` [Compound 3097, N-((5-(5-(difluoromethyl)-1,3,4-oxadiazol-2-yl)pyridin-2-yl)methyl)-1-(3-(dimethylamino)propanoyl)-3-fluoro-N-(3-fluorophenyl)azetidine-3-carboxamide], for which, in test [1], the IC50 is more than 50 µM. Moreover, in test [2], the “HDAC6 selectivity (fold)” value is recorded as 1,612 fold and the 50% inhibitory concentration (IC50) is 0.031 µM.

With `CN(C)CCCC(=O)N1CC(F)(C(=O)N(Cc2ccc(-c3nnc(C(F)F)o3)cn2)c2cccc(F)c2)C1` [Compound 3098, N-((5-(5-(difluoromethyl)-1,3,4-oxadiazol-2-yl)pyridin-2-yl)methyl)-1-(4-(dimethylamino)butanoyl)-3-fluoro-N-(3-fluorophenyl)azetidine-3-carboxamide], the IC50 in test [1] is more than 50 µM. Besides, in test [2], the “HDAC6 selectivity (fold)” value is 1,992 fold and the IC50 is 0.0251 µM.

Take `CN1CC(N2CC(F)(C(=O)N(Cc3ccc(-c4nnc(C(F)F)o4)cn3)c3ccccc3)C2)C1` [Compound 3105, N-((5-(5-(difluoromethyl)-1,3,4-oxadiazol-2-yl)pyridin-2-yl)methyl)-3-fluoro-1′-methyl-N-phenyl-[1,3′-biazetidine]-3-carboxamide]: the IC50 in test [1] is more than 50 µM. Further, in test [2], the “HDAC6 selectivity (fold)” value is given as 771 fold and the concentration for half-maximal inhibition (IC50) was 0.0648 µM.

On to `CCN1CC(N2CC(F)(C(=O)N(Cc3ccc(-c4nnc(C(F)F)o4)cn3)c3ccccc3)C2)C1` [Compound 3106, N-((5-(5-(difluoromethyl)-1,3,4-oxadiazol-2-yl)pyridin-2-yl)methyl)-1′-ethyl-3-fluoro-N-phenyl-[1,3′-biazetidine]-3-carboxamide], for which the IC50 in test [1] was more than 50 µM. For the same compound, in test [2], the “HDAC6 selectivity (fold)” value is reported as 1,262 fold and the IC50 amounted to 0.0396 µM.

For the compound `CCCN1CC(N2CC(F)(C(=O)N(Cc3ccc(-c4nnc(C(F)F)o4)cn3)c3ccccc3)C2)C1` [Compound 3107, N-((5-(5-(difluoromethyl)-1,3,4-oxadiazol-2-yl)pyridin-2-yl)methyl)-3-fluoro-N-phenyl-1′-propyl-[1,3′-biazetidine]-3-carboxamide], the half-inhibitory concentration (IC50) in test [1] is more than 50 µM; in test [2], 0.0472 µM. Besides, in test [2], the “HDAC6 selectivity (fold)” value is listed as 1,059 fold.

On to `CCCCN1CC(N2CC(F)(C(=O)N(Cc3ccc(-c4nnc(C(F)F)o4)cn3)c3ccccc3)C2)C1` [Compound 3108, 1′-butyl-N-((5-(5-(difluoromethyl)-1,3,4-oxadiazol-2-yl)pyridin-2-yl)methyl)-3-fluoro-N-phenyl-[1,3′-biazetidine]-3-carboxamide], for which the half-inhibitory concentration (IC50) in test [1] is more than 50 µM. For the same compound, in test [2], the “HDAC6 selectivity (fold)” value was 1,827 fold and the half-inhibitory concentration (IC50) was determined as 0.0274 µM.

Regarding `CN1CCC(N2CC(F)(C(=O)N(Cc3ccc(-c4nnc(C(F)F)o4)cn3)c3ccccc3)C2)CC1` [Compound 3110, N-((5-(5-(difluoromethyl)-1,3,4-oxadiazol-2-yl)pyridin-2-yl)methyl)-3-fluoro-1-(1-methylpiperidin-4-yl)-N-phenylazetidine-3-carboxamide], the concentration for half-maximal inhibition (IC50) in test [1] is more than 50 µM; in test [2], 0.0427 µM. For the same compound, in test [2], the “HDAC6 selectivity (fold)” value is reported as 1,170 fold.

Consider `CCN1CCC(N2CC(F)(C(=O)N(Cc3ccc(-c4nnc(C(F)F)o4)cn3)c3ccccc3)C2)CC1` [Compound 3111, N-((5-(5-(difluoromethyl)-1,3,4-oxadiazol-2-yl)pyridin-2-yl)methyl)-1-(1-ethylpiperidin-4-yl)-3-fluoro-N-phenylazetidine-3-carboxamide], for which the IC50 is more than 50 µM in test [1] and 0.0537 µM in test [2]. Moreover, the “HDAC6 selectivity (fold)” value in test [2] was determined as 931 fold.

On to `CCCN1CCC(N2CC(F)(C(=O)N(Cc3ccc(-c4nnc(C(F)F)o4)cn3)c3ccccc3)C2)CC1` [Compound 3112, N-((5-(5-(difluoromethyl)-1,3,4-oxadiazol-2-yl)pyridin-2-yl)methyl)-3-fluoro-N-phenyl-1-(1-propylpiperidin-4-yl)azetidine-3-carboxamide], for which the IC50 in test [1] was more than 50 µM. For the same compound, in test [2], the “HDAC6 selectivity (fold)” value was 2,024 fold and the IC50 was determined as 0.0247 µM.

In the case of `CCCCN1CCC(N2CC(F)(C(=O)N(Cc3ccc(-c4nnc(C(F)F)o4)cn3)c3ccccc3)C2)CC1` [Compound 3113, 1-(1-butylpiperidin-4-yl)-N-((5-(5-(difluoromethyl)-1,3,4-oxadiazol-2-yl)pyridin-2-yl)methyl)-3-fluoro-N-phenylazetidine-3-carboxamide], the half-maximal inhibitory concentration (IC50) in test [1] was more than 50 µM. In test [2], the “HDAC6 selectivity (fold)” value is reported as 1,543 fold and the half-maximal inhibitory concentration (IC50) is 0.0324 µM.

For the compound `CC(C)CN1CCC(N2CC(F)(C(=O)N(Cc3ccc(-c4nnc(C(F)F)o4)cn3)c3ccccc3)C2)CC1` [Compound 3114, N-((5-(5-(difluoromethyl)-1,3,4-oxadiazol-2-yl)pyridin-2-yl)methyl)-3-fluoro-1-(1-isobutylpiperidin-4-yl)-N-phenylazetidine-3-carboxamide], the IC50 in test [1] was more than 50 µM. For the same compound, in test [2], the “HDAC6 selectivity (fold)” value was 1,524 fold and the half-inhibitory concentration (IC50) came to 0.0328 µM.
